Measured values reported in patent US9169195B2, “Amides, use of amides as solvents for organic compounds, compositions and emulsions containing amides, and method for treating a plant” (AKZO NOBEL CHEMICALS INTERNATIONAL B.V., priority 2009, dated 2015).
Where two headings read alike, the source gives them in different places.

Experiments:
[1] = numbers taken from the e-Pesticide Manual v 4.0; cited from earlier work
[2] = Solubility of active ingredients in the amide solvents (solvent added until dissolved, stable 24 h)
Protocol: Various agriculturally active ingredients were dissolved in both N-methyl-N-(2-propylheptyl)-formamide and N-methyl-N-(n-decyl)-formamide in order to evaluate the solubility of the active ingredients in the amides.
This was done by adding the active ingredient (AI) to a beaker and thereafter adding the solvent until the entire AI had been dissolved. The solutions were continually stirred at a temperature of 23° C. during the experiments. When everything had been dissolved, the beakers were left without stirring for 24 h to see if the solution was stable (i.e. no crystallization).

[3] = Emulsion dilution: crystallisation of tebuconazole in emulsions, ocular inspection; assay type: physicochemical; parameters: key: +: no crystals visible; −: crystals visible; details: 5° C.
Protocol: Formulations containing 250 g/l of tebuconazole was formulated together with 100 g/l of surfactant blend (CaDDBS and tristyrylphenol ethoxylate (15 EO), 50:50) and diluted to a final volume of one liter with each one of the solvents N,N-dimethyl decanamide, N-methyl-N-octyl propanamide, N-methyl-N-(2-propylheptyl) formamide or N-methyl-N-(n-decyl) formamide. Each formulation was emulsified into tap water at ambient temperature (˜22° C.) in the volume ratio (formulation:water) 1:100, 1:150, 1:200 and 1:500 dilution. The emulsions were poured into 100 ml conical glass centrifuge tubes and monitored over time at three different temperatures 5, 20 and 40° C. for observation of crystallisation of active ingredient (tebuconazole).
Crystallization was judged by ocular inspection with the naked eye, and in the table below, the following is used: […]

[4] = solvent N-methyl-N-(2-propylheptyl) formamide, 23° C.
[5] = solvent N-methyl-N-(n-decyl) formamide, 23° C.
[6] = 3 h, formulation:tap water 1:100, 250 g/l tebuconazole
[7] = 3 h, formulation:tap water 1:150, 250 g/l tebuconazole
[8] = 3 h, formulation:tap water 1:200, 250 g/l tebuconazole
[9] = 3 h, formulation:tap water 1:500, 250 g/l tebuconazole
[10] = 6 h, formulation:tap water 1:100, 250 g/l tebuconazole
[11] = 6 h, formulation:tap water 1:150, 250 g/l tebuconazole
[12] = 6 h, formulation:tap water 1:200, 250 g/l tebuconazole
[13] = 6 h, formulation:tap water 1:500, 250 g/l tebuconazole
[14] = 12 h, formulation:tap water 1:100, 250 g/l tebuconazole
[15] = 12 h, formulation:tap water 1:150, 250 g/l tebuconazole
[16] = 12 h, formulation:tap water 1:200, 250 g/l tebuconazole
[17] = 12 h, formulation:tap water 1:500, 250 g/l tebuconazole
[18] = 24 h, formulation:tap water 1:100, 250 g/l tebuconazole
[19] = 24 h, formulation:tap water 1:150, 250 g/l tebuconazole
[20] = 24 h, formulation:tap water 1:200, 250 g/l tebuconazole
[21] = 24 h, formulation:tap water 1:500, 250 g/l tebuconazole
[22] = 36 h, formulation:tap water 1:100, 250 g/l tebuconazole
[23] = 36 h, formulation:tap water 1:150, 250 g/l tebuconazole
[24] = 36 h, formulation:tap water 1:200, 250 g/l tebuconazole
[25] = 36 h, formulation:tap water 1:500, 250 g/l tebuconazole
[26] = 48 h, formulation:tap water 1:100, 250 g/l tebuconazole
[27] = 48 h, formulation:tap water 1:150, 250 g/l tebuconazole
[28] = 48 h, formulation:tap water 1:200, 250 g/l tebuconazole
[29] = 48 h, formulation:tap water 1:500, 250 g/l tebuconazole
[30] = 72 h, formulation:tap water 1:100, 250 g/l tebuconazole
[31] = 72 h, formulation:tap water 1:150, 250 g/l tebuconazole
[32] = 72 h, formulation:tap water 1:200, 250 g/l tebuconazole
[33] = 72 h, formulation:tap water 1:500, 250 g/l tebuconazole
[34] = 96 h, formulation:tap water 1:100, 250 g/l tebuconazole
[35] = 96 h, formulation:tap water 1:150, 250 g/l tebuconazole
[36] = 96 h, formulation:tap water 1:200, 250 g/l tebuconazole
[37] = 96 h, formulation:tap water 1:500, 250 g/l tebuconazole

Cc1c(COC(=O)[C@@H]2[C@H](/C=C(\Cl)C(F)(F)F)C2(C)C)cccc1-c1ccccc1 (racemic) [Bifenthrin]
Solubility in Water [1]: <0.0000001 g Al/100 g solvent | Solubility in N-Methyl-N-(2-propylheptyl) formamide [2, 4]: >50 g Al/100 g solvent | Solubility in N-Methyl-N-(n-decyl) formamide [2, 5]: >50 g Al/100 g solvent

O=C(O)COc1ccc(Cl)cc1Cl [2,4-D acid]
Solubility in Water [1]: 0.0311 g Al/100 g solvent | Solubility in N-Methyl-N-(2-propylheptyl) formamide [2, 4]: 41 g Al/100 g solvent | Solubility in N-Methyl-N-(n-decyl) formamide [2, 5]: >50 g Al/100 g solvent

Cc1ccc(/N=C/N(C)/C=N/c2ccc(C)cc2C)c(C)c1 [Amitraz]
Solubility in Water [1]: <0.00001 g Al/100 g solvent | Solubility in N-Methyl-N-(2-propylheptyl) formamide [2, 4]: >50 g Al/100 g solvent | Solubility in N-Methyl-N-(n-decyl) formamide [2, 5]: >50 g Al/100 g solvent

CCCCCCCCCC(=O)N(C)C [N,N-dimethyl decanamide]
Crystallisation of tebuconazole in emulsion [3, 6]: + | Crystallisation of tebuconazole in emulsion [3, 7]: + | Crystallisation of tebuconazole in emulsion [3, 8]: + | Crystallisation of tebuconazole in emulsion [3, 9]: + | Crystallisation of tebuconazole in emulsion [3, 10]: + | Crystallisation of tebuconazole in emulsion [3, 11]: + | Crystallisation of tebuconazole in emulsion [3, 12]: + | Crystallisation of tebuconazole in emulsion [3, 13]: − | Crystallisation of tebuconazole in emulsion [3, 14]: + | Crystallisation of tebuconazole in emulsion [3, 15]: + | Crystallisation of tebuconazole in emulsion [3, 16]: − | Crystallisation of tebuconazole in emulsion [3, 17]: − | Crystallisation of tebuconazole in emulsion [3, 18]: + | Crystallisation of tebuconazole in emulsion [3, 19]: − | Crystallisation of tebuconazole in emulsion [3, 20]: − | Crystallisation of tebuconazole in emulsion [3, 21]: − | Crystallisation of tebuconazole in emulsion [3, 22]: + | Crystallisation of tebuconazole in emulsion [3, 23]: − | Crystallisation of tebuconazole in emulsion [3, 24]: − | Crystallisation of tebuconazole in emulsion [3, 25]: − | Crystallisation of tebuconazole in emulsion [3, 26]: + | Crystallisation of tebuconazole in emulsion [3, 27]: − | Crystallisation of tebuconazole in emulsion [3, 28]: − | Crystallisation of tebuconazole in emulsion [3, 29]: − | Crystallisation of tebuconazole in emulsion [3, 30]: + | Crystallisation of tebuconazole in emulsion [3, 31]: − | Crystallisation of tebuconazole in emulsion [3, 32]: − | Crystallisation of tebuconazole in emulsion [3, 33]: − | Crystallisation of tebuconazole in emulsion [3, 34]: + | Crystallisation of tebuconazole in emulsion [3, 35]: − | Crystallisation of tebuconazole in emulsion [3, 36]: − | Crystallisation of tebuconazole in emulsion [3, 37]: −

CCCCCC(CCC)CN(C)C=O (stereo not drawn) [N-methyl-N-(2-propylheptyl) formamide, N-methyl-N-(2-propylheptyl)-formamide]
Crystallisation of tebuconazole in emulsion [3, 6]: + | Crystallisation of tebuconazole in emulsion [3, 7]: + | Crystallisation of tebuconazole in emulsion [3, 8]: + | Crystallisation of tebuconazole in emulsion [3, 9]: + | Crystallisation of tebuconazole in emulsion [3, 10]: + | Crystallisation of tebuconazole in emulsion [3, 11]: + | Crystallisation of tebuconazole in emulsion [3, 12]: + | Crystallisation of tebuconazole in emulsion [3, 13]: + | Crystallisation of tebuconazole in emulsion [3, 14]: + | Crystallisation of tebuconazole in emulsion [3, 15]: + | Crystallisation of tebuconazole in emulsion [3, 16]: + | Crystallisation of tebuconazole in emulsion [3, 17]: + | Crystallisation of tebuconazole in emulsion [3, 18]: + | Crystallisation of tebuconazole in emulsion [3, 19]: + | Crystallisation of tebuconazole in emulsion [3, 20]: + | Crystallisation of tebuconazole in emulsion [3, 21]: + | Crystallisation of tebuconazole in emulsion [3, 22]: + | Crystallisation of tebuconazole in emulsion [3, 23]: + | Crystallisation of tebuconazole in emulsion [3, 24]: + | Crystallisation of tebuconazole in emulsion [3, 25]: + | Crystallisation of tebuconazole in emulsion [3, 26]: + | Crystallisation of tebuconazole in emulsion [3, 27]: + | Crystallisation of tebuconazole in emulsion [3, 28]: + | Crystallisation of tebuconazole in emulsion [3, 29]: + | Crystallisation of tebuconazole in emulsion [3, 30]: + | Crystallisation of tebuconazole in emulsion [3, 31]: + | Crystallisation of tebuconazole in emulsion [3, 32]: + | Crystallisation of tebuconazole in emulsion [3, 33]: + | Crystallisation of tebuconazole in emulsion [3, 34]: + | Crystallisation of tebuconazole in emulsion [3, 35]: + | Crystallisation of tebuconazole in emulsion [3, 36]: + | Crystallisation of tebuconazole in emulsion [3, 37]: +

CCCCCCCCCCN(C)C=O [N-methyl-N-(n-decyl) formamide]
Crystallisation of tebuconazole in emulsion [3, 6]: + | Crystallisation of tebuconazole in emulsion [3, 7]: + | Crystallisation of tebuconazole in emulsion [3, 8]: + | Crystallisation of tebuconazole in emulsion [3, 9]: + | Crystallisation of tebuconazole in emulsion [3, 10]: + | Crystallisation of tebuconazole in emulsion [3, 11]: + | Crystallisation of tebuconazole in emulsion [3, 12]: + | Crystallisation of tebuconazole in emulsion [3, 13]: + | Crystallisation of tebuconazole in emulsion [3, 14]: + | Crystallisation of tebuconazole in emulsion [3, 15]: + | Crystallisation of tebuconazole in emulsion [3, 16]: + | Crystallisation of tebuconazole in emulsion [3, 17]: + | Crystallisation of tebuconazole in emulsion [3, 18]: + | Crystallisation of tebuconazole in emulsion [3, 19]: + | Crystallisation of tebuconazole in emulsion [3, 20]: + | Crystallisation of tebuconazole in emulsion [3, 21]: + | Crystallisation of tebuconazole in emulsion [3, 22]: + | Crystallisation of tebuconazole in emulsion [3, 23]: + | Crystallisation of tebuconazole in emulsion [3, 24]: + | Crystallisation of tebuconazole in emulsion [3, 25]: + | Crystallisation of tebuconazole in emulsion [3, 26]: + | Crystallisation of tebuconazole in emulsion [3, 27]: + | Crystallisation of tebuconazole in emulsion [3, 28]: + | Crystallisation of tebuconazole in emulsion [3, 29]: + | Crystallisation of tebuconazole in emulsion [3, 30]: + | Crystallisation of tebuconazole in emulsion [3, 31]: + | Crystallisation of tebuconazole in emulsion [3, 32]: + | Crystallisation of tebuconazole in emulsion [3, 33]: + | Crystallisation of tebuconazole in emulsion [3, 34]: + | Crystallisation of tebuconazole in emulsion [3, 35]: + | Crystallisation of tebuconazole in emulsion [3, 36]: + | Crystallisation of tebuconazole in emulsion [3, 37]: +

CCCCCCCCN(C)C(=O)CC [N-methyl-N-octyl propanamide]
Crystallisation of tebuconazole in emulsion [3, 6]: + | Crystallisation of tebuconazole in emulsion [3, 7]: + | Crystallisation of tebuconazole in emulsion [3, 8]: + | Crystallisation of tebuconazole in emulsion [3, 9]: + | Crystallisation of tebuconazole in emulsion [3, 10]: + | Crystallisation of tebuconazole in emulsion [3, 11]: + | Crystallisation of tebuconazole in emulsion [3, 12]: + | Crystallisation of tebuconazole in emulsion [3, 13]: − | Crystallisation of tebuconazole in emulsion [3, 14]: + | Crystallisation of tebuconazole in emulsion [3, 15]: + | Crystallisation of tebuconazole in emulsion [3, 16]: − | Crystallisation of tebuconazole in emulsion [3, 17]: − | Crystallisation of tebuconazole in emulsion [3, 18]: + | Crystallisation of tebuconazole in emulsion [3, 19]: + | Crystallisation of tebuconazole in emulsion [3, 20]: − | Crystallisation of tebuconazole in emulsion [3, 21]: − | Crystallisation of tebuconazole in emulsion [3, 22]: + | Crystallisation of tebuconazole in emulsion [3, 23]: + | Crystallisation of tebuconazole in emulsion [3, 24]: − | Crystallisation of tebuconazole in emulsion [3, 25]: − | Crystallisation of tebuconazole in emulsion [3, 26]: + | Crystallisation of tebuconazole in emulsion [3, 27]: − | Crystallisation of tebuconazole in emulsion [3, 28]: − | Crystallisation of tebuconazole in emulsion [3, 29]: − | Crystallisation of tebuconazole in emulsion [3, 30]: + | Crystallisation of tebuconazole in emulsion [3, 31]: − | Crystallisation of tebuconazole in emulsion [3, 32]: − | Crystallisation of tebuconazole in emulsion [3, 33]: − | Crystallisation of tebuconazole in emulsion [3, 34]: + | Crystallisation of tebuconazole in emulsion [3, 35]: − | Crystallisation of tebuconazole in emulsion [3, 36]: − | Crystallisation of tebuconazole in emulsion [3, 37]: −

CC(C)(C)C(O)(CCc1ccc(Cl)cc1)Cn1cncn1 (stereo not drawn) [Tebuconazole]
Solubility in N-Methyl-N-(n-decyl) formamide [2]: 48 g Al/100 g solvent | Solubility in N-Methyl-N-(2-propylheptyl) formamide [2, 4]: 48 g Al/100 g solvent

CON=C(C(=O)OC)c1ccccc1CON=C(C)c1cccc(C(F)(F)F)c1 [Trifloxystrobin]
Solubility in N-Methyl-N-(2-propylheptyl) formamide [2]: 23 g Al/100 g solvent | Solubility in N-Methyl-N-(n-decyl) formamide [2]: 23 g Al/100 g solvent
